# Results taken from BindingDB's records for doi:10.1016/j.bmc.2005.11.005 (Wyeth Research, 2006).
# Target: T1, Tyrosine-protein phosphatase non-receptor type 1 [1-298] (Homo sapiens, UniProt P18031)
# T1 construct: 1-298
# T1 sequence (P18031 whole entry): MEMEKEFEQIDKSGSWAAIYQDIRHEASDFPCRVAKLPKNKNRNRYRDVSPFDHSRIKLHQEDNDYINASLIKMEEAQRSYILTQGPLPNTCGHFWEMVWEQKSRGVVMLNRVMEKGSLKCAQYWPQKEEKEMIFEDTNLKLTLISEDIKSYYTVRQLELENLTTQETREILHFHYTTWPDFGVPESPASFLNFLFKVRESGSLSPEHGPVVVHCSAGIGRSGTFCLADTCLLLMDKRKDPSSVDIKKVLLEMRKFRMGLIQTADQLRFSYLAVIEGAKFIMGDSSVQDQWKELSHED
# Assay: Enzymatic Assay
# Details: 25 °C
# Protocol: (§1) The enzymatic assay was carried out at room temperature in 96-well plates. […] All the assays were carried out in duplicate or triplicate and the average results are presented. Ki is derived from IC50 based on competitive inhibition Ki = IC50 x Km/ (Km + [substrate]).
row,Compound,Ki [µM]
1,"O=C(O)COc1c(C(=O)O)sc2c1ccc1ccccc12 [5-(carboxymethoxy)-3-thiatricyclo[7.4.0.0^{2,6}]trideca-1(9),2(6),4,7,10,12-hexaene-4-carboxylic acid]",11
2,"O=C(O)COc1c(C(=O)O)sc2c1cnc1ccccc12 [5-(carboxymethoxy)-3-thia-8-azatricyclo[7.4.0.0^{2,6}]trideca-1(9),2(6),4,7,10,12-hexaene-4-carboxylic acid]",> 500

# Further lines, results first:
row,Ki [µM],Compound
1,9.2,"O=C(O)COc1c(C(=O)O)sc2c1sc1ccccc12 [5-(carboxymethoxy)-3,7-dithiatricyclo[6.4.0.0^{2,6}]dodeca-1(8),2(6),4,9,11-pentaene-4-carboxylic acid]"
2,0.74,"O=C(O)COc1c(C(=O)O)sc2c1sc1cc(NC3CCCCC3)ccc12 [5-(carboxymethoxy)-10-(cyclohexylamino)-3,7-dithiatricyclo[6.4.0.0^{2,6}]dodeca-1(8),2(6),4,9,11-pentaene-4-carboxylic acid]"
3,3.5,"O=C(O)COc1c(C(=O)O)sc2c1sc1cc(Cl)ccc12 [5-(carboxymethoxy)-10-chloro-3,7-dithiatricyclo[6.4.0.0^{2,6}]dodeca-1(8),2(6),4,9,11-pentaene-4-carboxylic acid]"
4,2.4,"O=C(O)COc1c(C(=O)O)sc2c1sc1cc(NC3CCOCC3)ccc12 [5-(carboxymethoxy)-10-(oxan-4-ylamino)-3,7-dithiatricyclo[6.4.0.0^{2,6}]dodeca-1(8),2(6),4,9,11-pentaene-4-carboxylic acid]"
5,1.6,"CCS(=O)(=O)N1CCC(Nc2ccc3c(c2)sc2c(OCC(=O)O)c(C(=O)O)sc23)CC1 [5-(carboxymethoxy)-10-{[1-(ethanesulfonyl)piperidin-4-yl]amino}-3,7-dithiatricyclo[6.4.0.0^{2,6}]dodeca-1(8),2(6),4,9,11-pentaene-4-carboxylic acid]"
6,1.7,"O=C(O)COc1c(C(=O)O)sc2c1sc1c(NC3CCCCC3)cccc12 [5-(carboxymethoxy)-9-(cyclohexylamino)-3,7-dithiatricyclo[6.4.0.0^{2,6}]dodeca-1(8),2(6),4,9,11-pentaene-4-carboxylic acid]"
7,0.92,"O=C(O)COc1c(C(=O)O)sc2c1sc1c(NCC3CCCCC3)cccc12 [5-(carboxymethoxy)-9-[(cyclohexylmethyl)amino]-3,7-dithiatricyclo[6.4.0.0^{2,6}]dodeca-1(8),2(6),4,9,11-pentaene-4-carboxylic acid]"
8,10,"O=C(O)COc1c(C(=O)O)sc2c1sc1c(Cl)cccc12 [5-(carboxymethoxy)-9-chloro-3,7-dithiatricyclo[6.4.0.0^{2,6}]dodeca-1(8),2(6),4,9,11-pentaene-4-carboxylic acid]"
9,0.68,"O=C(O)COc1c(C(=O)O)sc2c1sc1cc(NCC3CCCCC3)ccc12 [5-(carboxymethoxy)-10-[(cyclohexylmethyl)amino]-3,7-dithiatricyclo[6.4.0.0^{2,6}]dodeca-1(8),2(6),4,9,11-pentaene-4-carboxylic acid]"
10,119,O=C(O)COc1c(C(=O)O)sc2c(Cl)cccc12 [3-(carboxymethoxy)-7-chloro-1-benzothiophene-2-carboxylic acid]
11,37,Cc1cccc2c(OCC(=O)O)c(C(=O)O)sc12 [3-(carboxymethoxy)-7-methyl-1-benzothiophene-2-carboxylic acid]

# Same assay, conditions: pH 7; 22 °C
row,Ki [µM],Compound
1,77,"O=C(O)COc1c(C(=O)O)sc2cccnc12 [3-(carboxymethoxy)thieno[3,2-b]pyridine-2-carboxylic acid]"
2,> 2500,"O=C(O)COc1c(C(=O)O)oc2ncccc12 [3-(carboxymethoxy)furo[2,3-b]pyridine-2-carboxylic acid]"
3,128,O=C(O)COc1c(C(=O)O)sc2cc(-c3ccccc3)ccc12 [3-(carboxymethoxy)-6-phenyl-1-benzothiophene-2-carboxylic acid]
4,42,O=C(O)COc1c(C(=O)O)sc2cc(Br)ccc12 [6-bromo-3-(carboxymethoxy)-1-benzothiophene-2-carboxylic acid]
5,20,O=C(O)COc1c(C(=O)O)sc2cc(C(=O)Nc3ccn(-c4ccccc4)n3)ccc12 [3-(carboxymethoxy)-6-[(1-phenyl-1H-pyrazol-3-yl)carbamoyl]-1-benzothiophene-2-carboxylic acid]
6,860,O=C(O)COc1cc2ccccc2cc1C(=O)O [3-(carboxymethoxy)naphthalene-2-carboxylic acid]
7,61,O=C(O)COc1c(C(=O)O)sc2cc(Cl)ccc12 [3-(carboxymethoxy)-6-chloro-1-benzothiophene-2-carboxylic acid]
8,52,O=C(O)c1sc2cc(Cl)ccc2c1OC(F)C(=O)O (centres undefined) [3-[carboxy(fluoro)methoxy]-6-chloro-1-benzothiophene-2-carboxylic acid]
9,280,"O=C(O)COc1c(C(=O)O)sc2ccsc12 [3-(carboxymethoxy)thieno[3,2-b]thiophene-2-carboxylic acid]"
10,30,O=C(O)COc1c(C(=O)O)sc2cc(-c3cccs3)ccc12 [3-(carboxymethoxy)-6-(thiophen-2-yl)-1-benzothiophene-2-carboxylic acid]
11,160,O=C(O)COc1c(C(=O)O)sc2ccccc12 [3-(carboxymethoxy)-1-benzothiophene-2-carboxylic acid]
12,> 2500,"Cc1cc2sc(C(=O)O)c(OCC(=O)O)c2cn1 [3-(carboxymethoxy)-6-methylthieno[3,2-c]pyridine-2-carboxylic acid]"
13,26,O=C(O)COc1c(C(=O)O)sc2cc(-c3ccc(O)cc3)ccc12 [3-(carboxymethoxy)-6-(4-hydroxyphenyl)-1-benzothiophene-2-carboxylic acid]
14,> 2500,CC(Oc1c(C(=O)O)sc2cc(Cl)ccc12)C(=O)O (centres undefined) [3-(1-carboxyethoxy)-6-chloro-1-benzothiophene-2-carboxylic acid]

# Target: T2, Tyrosine-protein phosphatase non-receptor type 2 (Homo sapiens, UniProt P17706)
# T2 sequence (P17706 whole entry): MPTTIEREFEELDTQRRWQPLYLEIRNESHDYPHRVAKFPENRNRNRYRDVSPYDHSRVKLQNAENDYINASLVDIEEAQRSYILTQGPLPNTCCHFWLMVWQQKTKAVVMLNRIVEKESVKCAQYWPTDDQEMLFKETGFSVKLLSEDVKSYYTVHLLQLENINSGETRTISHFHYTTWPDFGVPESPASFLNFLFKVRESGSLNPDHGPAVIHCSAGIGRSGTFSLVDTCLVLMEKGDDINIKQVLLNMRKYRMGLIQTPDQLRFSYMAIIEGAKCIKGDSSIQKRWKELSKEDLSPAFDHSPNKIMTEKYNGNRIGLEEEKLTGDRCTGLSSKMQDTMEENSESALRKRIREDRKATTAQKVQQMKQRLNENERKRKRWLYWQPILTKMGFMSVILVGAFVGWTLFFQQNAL
# Assay: Enzymatic Assay
# Details: 25 °C
# Protocol: as §1
row,Ki [µM],Compound
1,4.1,"O=C(O)COc1c(C(=O)O)sc2c1sc1ccccc12 [5-(carboxymethoxy)-3,7-dithiatricyclo[6.4.0.0^{2,6}]dodeca-1(8),2(6),4,9,11-pentaene-4-carboxylic acid]"
2,0.38,"O=C(O)COc1c(C(=O)O)sc2c1sc1cc(NC3CCN(S(=O)(=O)Cc4ccccc4)CC3)ccc12 [5-(carboxymethoxy)-10-{[1-(phenylmethane)sulfonylpiperidin-4-yl]amino}-3,7-dithiatricyclo[6.4.0.0^{2,6}]dodeca-1(8),2(6),4,9,11-pentaene-4-carboxylic acid]"
